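Following 48 hours of exposure in 96-well plates, responses at five concentrations were used to interpolate endpoints linearly. GI50 marks 50% less growth. TGI denotes the concentration required for complete inhibition of growth.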 A value given as a limit tells only on which side of the number the result lay.

Drawing on PubChem BioAssay (NCI), this text covers TGI and GI50 for eight compounds.

Among the test systems are CCRF-CEM leukemia; HCT-15 colon; HOP-62 NSCLC; HS 578T breast; MCF7 breast; MOLT-4 leukemia; NCI-H226 lung; NCI-H23 lung; PC-3 prostate; SF-295 CNS; SK-MEL-2 melanoma; SK-MEL-28 melanoma; SN12C renal; SNB-75 CNS; SW-620 colon; UACC-257 melanoma; UO-31 renal; SR leukemia.
Common to all, as to experiment: inhibition of tumour cell growth, NCI panel, 48 h

Turning to `O=C1CC(Br)c2c(Br)sc(Br)c21` (stereo not drawn), the TGI in the test with CCRF-CEM leukemia is 9.42 µM; with HCT-15 colon it was 34.6 µM; in the test on HOP-62 NSCLC it was 39 µM; in the test on HS 578T breast it was greater than 100 µM; in the test on MCF7 breast it was 32.4 µM; in the test on MOLT-4 leukemia it was 25.5 µM. For the same compound, the TGI with NCI-H226 lung was 54.6 µM; in the test with NCI-H23 lung, 32 µM; in the test with PC-3 prostate, 39.4 µM; in the test on SF-295 CNS, 58.7 µM; in the test with SK-MEL-2 melanoma it was 35.8 µM; in the test with SK-MEL-28 melanoma, greater than 100 µM. The TGI in the test with SN12C renal was determined as 29 µM; in the test on SNB-75 CNS, 42.4 µM; in the test with SW-620 colon, 26.5 µM; with UACC-257 melanoma, 29.1 µM; in the test on UO-31 renal it was 34.7 µM.
On to `OCC1OC(NC(=S)NCCC(F)(F)C(F)(F)C(F)(F)C(F)(F)C(F)(F)C(F)(F)F)C(O)C(O)C1O` (stereo not drawn), for which the TGI in the test with CCRF-CEM leukemia, in the test on HCT-15 colon, with HOP-62 NSCLC, in the test with HS 578T breast, with MCF7 breast and in the test on MOLT-4 leukemia was greater than 100 µM in each case. In addition, the TGI in the test with NCI-H23 lung, in the test on PC-3 prostate, in the test with SF-295 CNS, with SK-MEL-2 melanoma, in the test with SK-MEL-28 melanoma and in the test with SN12C renal was greater than 100 µM in each case. In addition, the TGI with SNB-75 CNS, with SR leukemia, with SW-620 colon, in the test on UACC-257 melanoma and in the test with UO-31 renal was greater than 100 µM each time.
For `CCOc1cccc(C=Nc2ccccc2SSc2ccccc2N=Cc2cccc(OCC)c2O)c1O`, the TGI in the test on CCRF-CEM leukemia is 12.2 µM; with HCT-15 colon, 12.9 µM; in the test with HOP-62 NSCLC, 30.9 µM; in the test on HS 578T breast, 90.7 µM; in the test on MOLT-4 leukemia it was 10.4 µM; in the test on NCI-H226 lung, 22.5 µM. In addition, the TGI came to 20.3 µM with NCI-H23 lung; 12.8 µM in the test on PC-3 prostate; 37.6 µM in the test on SF-295 CNS; 37.7 µM in the test with SK-MEL-2 melanoma; 26.2 µM in the test on SK-MEL-28 melanoma; 35.7 µM with SN12C renal. For the same compound, the TGI in the test on SNB-75 CNS came out at 56 µM; in the test with SR leukemia, 28.2 µM; with SW-620 colon it was 23.1 µM; in the test on UACC-257 melanoma, 21.2 µM; with UO-31 renal, 26.6 µM.
As to `COc1cc(C2C3=C(COC3=O)OC(C)(C)Oc3cc4c(cc32)OCO4)cc(OC)c1O` (stereo not drawn), the TGI with CCRF-CEM leukemia, with HCT-15 colon, in the test on HOP-62 NSCLC, in the test with HS 578T breast, in the test on MCF7 breast and in the test with MOLT-4 leukemia was greater than 100 µM each time. The TGI with NCI-H23 lung was greater than 22.1 µM; with PC-3 prostate, greater than 100 µM; in the test on SK-MEL-2 melanoma, greater than 100 µM; in the test on SK-MEL-28 melanoma, greater than 100 µM; in the test on SN12C renal, greater than 100 µM; in the test on SR leukemia it was greater than 100 µM. Moreover, the TGI was greater than 31.3 µM with SW-620 colon, greater than 100 µM with UACC-257 melanoma and greater than 100 µM in the test on UO-31 renal.
Take `CN(CCC(=O)N1CC(CCl)c2ccc([N+](=O)[O-])cc21)CCC(=O)N1CC(CCl)c2ccc([N+](=O)[O-])cc21` (stereo not drawn): the TGI in the test on CCRF-CEM leukemia was greater than 100 µM; with HCT-15 colon, 25.9 µM; in the test with HOP-62 NSCLC it was greater than 100 µM; in the test on HS 578T breast it was 17.7 µM; in the test on MCF7 breast, 23.5 µM; in the test with MOLT-4 leukemia, 24.2 µM. Further, the TGI is greater than 100 µM in the test on NCI-H226 lung; 29.3 µM in the test with NCI-H23 lung; greater than 100 µM in the test on PC-3 prostate; 39.5 µM with SF-295 CNS; 26 µM in the test on SK-MEL-2 melanoma; 28.9 µM with SK-MEL-28 melanoma. The TGI in the test on SN12C renal came out at 41.1 µM; in the test on SNB-75 CNS it was 19 µM; in the test with SW-620 colon it was 29 µM; with UACC-257 melanoma it was 21.6 µM.
On to `O=C1c2c(Br)sc(Br)c2C(NC(=O)C(F)(F)F)C1O` (stereo not drawn), for which the TGI with CCRF-CEM leukemia was 56.3 µM; in the test on HCT-15 colon, 33.6 µM; in the test on HS 578T breast, greater than 100 µM; in the test on MCF7 breast, 45.3 µM; in the test on MOLT-4 leukemia, greater than 100 µM; in the test with NCI-H226 lung, 79.8 µM. The TGI in the test with NCI-H23 lung is 46.3 µM; in the test with PC-3 prostate, 74.9 µM; with SF-295 CNS, 35.7 µM; in the test with SK-MEL-2 melanoma it was 40.9 µM; in the test on SK-MEL-28 melanoma, 43.7 µM; in the test with SN12C renal, 34.1 µM. For the same compound, the TGI with SNB-75 CNS was greater than 100 µM; with SW-620 colon, 40 µM; in the test with UACC-257 melanoma, 36.4 µM; with UO-31 renal, 56.7 µM.
With `CCCCCCCCCCCCCCCCP(=O)(O)OCC(N)C(=O)O` (stereo not drawn), the TGI with CCRF-CEM leukemia is greater than 100 µM; in the test with HCT-15 colon, greater than 100 µM; in the test with HOP-62 NSCLC, 47.9 µM; with HS 578T breast, greater than 100 µM; with MOLT-4 leukemia, 42.4 µM; in the test with NCI-H226 lung it was greater than 100 µM. In addition, the TGI was greater than 100 µM in the test with NCI-H23 lung; 41.5 µM in the test on PC-3 prostate; 44.8 µM with SF-295 CNS; 78.7 µM in the test with SK-MEL-2 melanoma; greater than 100 µM with SK-MEL-28 melanoma; greater than 100 µM with SN12C renal. Also, the TGI is 65.1 µM with SNB-75 CNS; 91.3 µM with SR leukemia; greater than 100 µM in the test on SW-620 colon; greater than 100 µM in the test with UACC-257 melanoma; 31.7 µM in the test with UO-31 renal.
Consider `COc1cc2c(cc1C)NC(=O)/C2=C/c1cccnc1`, for which the TGI with CCRF-CEM leukemia was greater than 56.8 µM; in the test with HCT-15 colon, greater than 78 µM; in the test with HOP-62 NSCLC, 30.5 µM; in the test with HS 578T breast it was 97.2 µM; in the test with MCF7 breast it was 32.3 µM; in the test with MOLT-4 leukemia it was 24.1 µM. Also, the TGI was 24.3 µM with NCI-H226 lung; 24.8 µM in the test on NCI-H23 lung; greater than 64.6 µM in the test on PC-3 prostate; 40.5 µM in the test on SF-295 CNS; 46.5 µM in the test with SK-MEL-2 melanoma; greater than 100 µM in the test on SK-MEL-28 melanoma. Besides, the TGI with SN12C renal is 29.5 µM; with SNB-75 CNS, greater than 100 µM; in the test on SW-620 colon, 53.1 µM; with UACC-257 melanoma, 27.7 µM; in the test with UO-31 renal, 26.2 µM. Further, the GI50 with NCI-H226 lung is 10.9 µM.
